The values that follow come from PMC12058896, “Potent antimicrobial activity of hydrogel loaded with the antimicrobial peptide, D-Bac8c^2,5 Leu, against monospecies and polymicrobial biofilms of Staphylococcus aureus and Pseudomonas aeruginosa” (Frontiers in Microbiology, 2025).

In one series the test system is IL-8. The settings on record: ref Zapotoczna et al. (2017); cited from earlier work. The source says:
(§1) Similarly, here we verified that D-Bac8c^2,5 Leu has low toxicity to human monocytes THP-1.

Another series deals with TNFα. Conditions: ref Zapotoczna et al. (2017); cited from earlier work.
Excerpt: as §1

The subject of another series is human red blood cells. Format: cell-based. Here is the method: Potential haemolytic activity of the peptide was determined using fresh human erythrocytes from healthy donors based on the method described by [Cantisani et al. (2013)]. Human blood was drawn [ethylenediaminetetraacetic acid (EDTA); 1.6 mg/mL], and red blood cells (RBCs) were separated by centrifugation at 1000 x g for 5 min at 18°C. Upon 3 washes with PBS, the RBCs were further diluted 2-fold (v/v) into PBS. D-Bac8c^2,5 Leu was added to erythrocyte suspension at a final concentration ranging from 3.125 to 200 μg/mL in a final volume of 100 μL. Samples were incubated at 37°C for 24 h. The level of haemolysis was assessed by measuring the absorbance of supernatant at 490 nm. Triton-X-100 was used as a positive control for haemolysis.

A further series concerns THP-1. Type of series: cell-based, human. Conditions: 24 h. As for the experimental part: Sigma-Aldrich, Ireland). […] At 90% confluence, cells were centrifuged and diluted to a 1:5 ratio with complete RPMI. THP-1 cells were seeded in a 96 well plate at a density of 1 × 10^5 cells/mL with increasing concentrations of D-Bac8c^2,5 Leu. Cells were incubated for 24 h at 37°C with 5% CO2, 95% humidity. […] The absorbance was measured at 595 nm in a microplate spectrophotometer. Cell viability was calculated as a percentage of a control treated with PBS. Two technical replicates were performed each day on three independent days.

Another series concerns USA300. The series can be described thus: microbe, parasite or virus in culture. Format: cell-based, Staphylococcus aureus. Conditions: USA300, 18 h. As for the experimental part:
(§2) Strains used in the study were isolates of methicillin-resistant Staphylococcus aureus (MRSA); USA300 LAC, BH1CC ([O’Neill et al., 2007]), methicillin-sensitive S. aureus (MSSA); SH1000 ([Horsburgh et al., 2002]) and BH48 ([O’Neill et al., 2007]); and Pseudomonas aeruginosa PAO1 (ATCC […]). Clinical isolates were obtained from a previous collection of isolates of infected wounds. Bacteria were grown aerobically at 37°C with shaking at 200 rpm in Brain Heart Infusion (BHI, Oxoid, Ireland). Selective media, Mannitol Salt Agar (SLS, Ireland) and MacConkey agar (SLS, Ireland), for re-isolation of bacterial strains from mixed species biofilms were used. Bolton Broth (Fannin, Ireland) supplemented with 50% bovine heparin plasma (TebuBio, UK), and 5% laked horse blood (Sigma-Aldrich, Ireland) was used to mimic in vivo conditions for static antibiofilm testing. For dynamic biofilm growth Simulated Wound Fluid (SWF) prepared as described previously with slight modification, 3% v/v fetal bovine serum in maximum recovery diluent (Merck, Ireland) was used ([Barbour et al., 2016]).
(§3) Minimum inhibitory concentration (MIC) was determined aerobically using the broth microdilution assay as recommended by the Clinical and Laboratory Standards Institute (CLSI) ([CLSI, 2018]). Briefly, 2-fold serial dilutions of the antimicrobial peptides of interest and conventional antibiotics were prepared in Mueller-Hinton broth (MHB) (Merck, Ireland) in a 96-well round bottom polypropylene plate (ThermoFisher, Ireland). Diluted bacterial suspensions in sterile PBS (Sigma, Ireland) were added to each well resulting in a final cell density of approximately 10^5 colony forming units (CFU)/mL. Microplates were incubated statically for 18 h at 37°C. In each assay, inoculated medium without antimicrobials and uninoculated medium served as growth and sterility controls, respectively. Conventional antibiotics, gentamicin (Merck, Ireland) and mupirocin (SLS, UK), were tested as comparator antimicrobials. The MIC value was defined as the lowest antimicrobial concentration showing no visible growth relative to positive (no antimicrobial agent) and negative controls (BHI alone). Experiments were conducted in triplicate, and independent replicates were performed three times to yield n = 3.

A further series has as its system BH48. The series can be described thus: microbe, parasite or virus in culture. Format: cell-based, Staphylococcus aureus. Conditions: 18 h. As for the experimental part: as §2, §3
Another series relates to SH1000. The series can be described thus: microbe, parasite or virus in culture. Format: cell-based, Staphylococcus aureus. Conditions: SH1000, 18 h. As for the experimental part: as §2, §3
A further series has as its system BH1CC. Kind of series: microbe, parasite or virus in culture. Format: cell-based, Staphylococcus aureus. The settings on record: 18 h. Here is the method:
as §2, §3

Series [1] deals with pro-inflammatory cytokines. The settings on record: cited from earlier work.

Values after ≈ are worked out from the molar mass of the structure shown. Non-standard residues stand in square brackets, D forms with d. Residues, ends and D or L forms follow the SMILES beside them.

Turning to `CC(C)C[C@@H](NC(=O)[C@H](N)CCCNC(=N)N)C(=O)N[C@H](Cc1c[nH]c2ccccc12)C(=O)N[C@@H](C(=O)N[C@H](CC(C)C)C(=O)N[C@H](Cc1c[nH]c2ccccc12)C(=O)N[C@H](CCCNC(=N)N)C(=O)N[C@H](CCCNC(=N)N)C(N)=O)C(C)C` [D-Bac8c^2,5 Leu] (H-[dR][dL][dW][dV][dL][dW][dR][dR]-NH2; N-terminus assumed), the “biofilm-induced increase in IL-8 levels” value with IL-8 was “inhibited”. The “effect on TNFα” value in the series with TNFα is “without affecting”. Further, the haemolytic activities entry in the series on human red blood cells is given as “negligible”. In addition, the “IC50 (50% cell viability), MTT” value in the series on THP-1 worked out at 331.7 µg/mL (≈ 280 µM). The MIC with USA300, against BH48, in the series with SH1000 and with BH1CC was 8 µg/mL (≈ 6.76 µM) each time. For the same compound, in [1], the “release of pro-inflammatory cytokines in human blood” value was “did not induce”.
